{"source": "patent US9676734B2", "about": "“Compounds and methods” (VIRONOVA INFLUENZA AB, priority 2012, dated 2017)", "test_system": "Caco2", "assay": "Caco2 permeability assay", "assay_type": "in vitro ADME", "conditions": "relative to Nucleozin", "procedure": "A Caco2 permeability assay was performed using the inventive compound VNFC 0009 as well as Nucleozin.", "data": [{"compound": "Cc1onc(-c2ccccc2)c1C(=S)N1CCN(c2ccc([N+](=O)[O-])cc2Cl)CC1", "note": "[VNFC 0009, (4-(2-chloro-4-nitrophenyl)piperazin-1-yl)(5-methyl-3-phenylisoxazol-4-yl)methanethione]", "values": [{"measurement": "Caco2 permeability in the apical to basal direction, higher than that of Nucleozin", "setting": "apical to basal", "value": "about 30%"}, {"measurement": "basal to apical Caco2 permeability, times lower than that of Nucleozin", "setting": "basal to apical", "value": "~7", "unit": "times"}]}]}
